# pIC50: −log10 of the molar value.
# Biological target: human NaV 1.7 (Homo sapiens, UniProt Q15858)
# Assay: E-VIPR optical membrane potential assay with electrical stimulation
# Assay type: cell-based
# Conditions: sodium channel inhibition; read-out: Binned Activity Data (IC50)
# Description: Assays for Detecting and Measuring NaV Inhibition Properties of Compound E-VIPR Optical Membrane Potential Assay Method with Electrical Stimulation
# Sodium channels are voltage-dependent proteins that can be activated by inducing membrane voltage changes by applying electric fields. The electrical stimulation instrument and methods of use are described in Ion Channel Assay Methods PCT/US01/21652, herein incorporated by reference and are referred to as E-VIPR. The instrument comprises a microtiter plate handler, an optical system for exciting the coumarin dye while simultaneously recording the coumarin and oxonol emissions, a waveform generator, a current- or voltage-controlled amplifier, and a device for inserting electrodes in well. Under integrated computer control, this instrument passes user-programmed electrical stimulus protocols to cells within the wells of the microtiter plate.
# 24 hours before the assay on E-VIPR, HEK cells expressing human NaV subtype, like NaV 1.7, are seeded in 384-well poly-lysine coated plates at 15,000-20,000 cells per well. Other subtypes are performed in an analogous mode in a cell line expressing the NaV of interest. HEK cells are grown in media (exact composition is specific to each cell type and NaV subtype) supplemented with 10% FBS (Fetal Bovine Serum, qualified; GibcoBRL #16140-071) and 1% Pen-Strep (Penicillin-Streptomycin; GibcoBRL #15140-122). Cells are grown in vented cap flasks, in 90% humidity and 10% CO2, to 100% confluence. They are usually split by trypsinization 1:10 or 1:20, depending on scheduling needs, and grown for 2-3 days before the next split.
# Bath1 buffer. Glucose 10 mM (1.8 g/L), Magnesium Chloride (Anhydrous), 1 mM (0.095 g/L), Calcium Chloride, 2 mM (0.222 g/L), HEPES 10 mM (2.38 g/L), Potassium Chloride, 4.5 mM (0.335 g/L), Sodium Chloride 160 mM (9.35 g/L).
# Hexyl Dye Solution: Bath1 Buffer+0.5% β-cyclodextrin (make this prior to use, Sigma #C4767), 8 μM CC2-DMPE+2.5 μM DiSBAC6(3). To make the solution Add volume of 10% Pluronic F127 stock equal to volumes of CC2-DMPE+DiSBAC6(3). The order of preparation is first mix Pluronic and CC2-DMPE, then add DiSBAC6(3) while vortexing, then add Bath1+β-Cyclodextrin.
# 1) Pre-spot compounds (in neat DMSO) into compound plates. Vehicle control (neat DMSO), the positive control (20 mM DMSO stock tetracaine, 125 μM final in assay) and test compounds are added to each well at 160× desired final concentration in neat DMSO. Final compound plate volume will be 80 μL (80-fold intermediate dilution from 1 μL DMSO spot; 160-fold final dilution after transfer to cell plate). Final DMSO concentration for all wells in assay is 0.625%.
# 2) Prepare Hexyl Dye Solution.
# 3) Prepare cell plates. On the day of the assay, medium is aspirated and cells are washed three times with 100 μL of Bath1 Solution, maintaining 25 μL residual volume in each well.
# 4) Dispense 25 μL per well of Hexyl Dye Solution into cell plates. Incubate for 20-35 minutes at room temp or ambient conditions.
# 5) Dispense 80 μL per well of Bath1 into compound plates. Acid Yellow-17 (1 mM) is added and Potassium Chloride can be altered from 4.5 to 20 mM depending on the NaV subtype and assay sensitivity.
# 6) Wash cell plates three times with 100 μL per well of Bath1, leaving 25 μL of residual volume. Then transfer 25 uL per well from Compound Plates to Cell Plates. Incubate for 20-35 minutes at room temp/ambient condition
# 7) Read Plate on E-VIPR. Use the current-controlled amplifier to deliver stimulation wave pulses for typically 9 seconds and a scan rate of 400 Hz. A pre-stimulus recording is performed for 0.5 seconds to obtain the un-stimulated intensities baseline. The stimulatory waveform is applied for 9 seconds followed by 0.5 seconds of post-stimulation recording to examine the relaxation to the resting state. […]
# human NaV 1.7, sequence (Q15858 whole entry): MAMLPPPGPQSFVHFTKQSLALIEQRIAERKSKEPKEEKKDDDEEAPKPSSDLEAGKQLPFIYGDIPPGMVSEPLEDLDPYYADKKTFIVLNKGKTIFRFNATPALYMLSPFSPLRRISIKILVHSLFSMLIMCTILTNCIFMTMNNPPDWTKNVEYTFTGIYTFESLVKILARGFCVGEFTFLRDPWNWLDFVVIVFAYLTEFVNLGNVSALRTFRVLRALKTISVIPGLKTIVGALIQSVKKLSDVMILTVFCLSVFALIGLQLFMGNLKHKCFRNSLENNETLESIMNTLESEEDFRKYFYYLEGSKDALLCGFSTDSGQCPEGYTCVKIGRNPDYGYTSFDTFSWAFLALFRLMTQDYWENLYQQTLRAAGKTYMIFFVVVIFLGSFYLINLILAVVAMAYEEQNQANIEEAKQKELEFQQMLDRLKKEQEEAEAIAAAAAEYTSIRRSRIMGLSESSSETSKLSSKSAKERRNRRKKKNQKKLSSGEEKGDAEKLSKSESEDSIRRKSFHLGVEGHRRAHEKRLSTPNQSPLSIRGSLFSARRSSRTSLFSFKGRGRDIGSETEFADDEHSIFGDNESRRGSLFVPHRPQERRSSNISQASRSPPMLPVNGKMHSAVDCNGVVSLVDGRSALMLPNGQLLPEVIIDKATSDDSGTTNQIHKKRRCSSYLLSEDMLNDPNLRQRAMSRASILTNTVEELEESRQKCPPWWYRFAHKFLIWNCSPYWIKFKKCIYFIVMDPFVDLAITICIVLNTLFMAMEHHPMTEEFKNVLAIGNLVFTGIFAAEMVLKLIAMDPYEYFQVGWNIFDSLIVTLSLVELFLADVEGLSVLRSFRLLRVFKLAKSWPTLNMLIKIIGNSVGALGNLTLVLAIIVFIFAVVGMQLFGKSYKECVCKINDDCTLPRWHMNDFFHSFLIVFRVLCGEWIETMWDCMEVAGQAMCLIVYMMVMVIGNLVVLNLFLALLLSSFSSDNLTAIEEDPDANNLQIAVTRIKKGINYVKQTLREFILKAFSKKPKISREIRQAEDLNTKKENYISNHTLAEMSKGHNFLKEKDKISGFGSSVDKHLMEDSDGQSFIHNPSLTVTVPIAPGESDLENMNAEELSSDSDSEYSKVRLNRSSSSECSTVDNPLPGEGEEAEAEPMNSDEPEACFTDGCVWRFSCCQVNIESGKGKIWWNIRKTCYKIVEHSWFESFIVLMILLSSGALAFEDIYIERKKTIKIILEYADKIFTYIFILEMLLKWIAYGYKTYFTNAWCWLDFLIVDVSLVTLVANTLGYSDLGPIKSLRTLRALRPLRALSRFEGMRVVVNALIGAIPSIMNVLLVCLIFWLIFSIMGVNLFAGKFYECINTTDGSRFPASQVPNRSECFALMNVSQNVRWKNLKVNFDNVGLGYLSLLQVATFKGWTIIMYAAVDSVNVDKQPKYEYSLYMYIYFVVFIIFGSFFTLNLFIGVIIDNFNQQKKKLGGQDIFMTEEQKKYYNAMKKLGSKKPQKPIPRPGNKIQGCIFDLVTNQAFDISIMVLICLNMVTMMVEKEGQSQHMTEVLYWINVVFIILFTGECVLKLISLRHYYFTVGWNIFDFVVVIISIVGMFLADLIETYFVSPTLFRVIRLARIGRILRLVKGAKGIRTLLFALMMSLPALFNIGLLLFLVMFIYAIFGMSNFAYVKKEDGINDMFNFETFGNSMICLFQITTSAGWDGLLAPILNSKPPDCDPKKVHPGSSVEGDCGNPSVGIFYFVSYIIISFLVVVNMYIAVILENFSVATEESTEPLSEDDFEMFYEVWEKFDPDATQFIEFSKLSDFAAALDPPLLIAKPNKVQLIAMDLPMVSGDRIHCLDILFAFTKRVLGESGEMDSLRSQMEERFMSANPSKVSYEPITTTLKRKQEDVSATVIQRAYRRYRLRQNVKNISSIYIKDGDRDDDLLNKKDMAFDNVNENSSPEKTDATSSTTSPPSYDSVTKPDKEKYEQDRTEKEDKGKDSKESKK
row,SMILES,pIC50
1,Cc1cccc(C(=O)N2CCC3(CC2)Oc2ccccc2-c2c3cnn2C)c1O [Compound 868],5.30 to 5.70
2,N#Cc1cccc(C(=O)N2CCC3(CC2)Oc2cc(Cl)ccc2-n2cccc23)c1 [Compound 272],< 5.30
3,Cc1nc2c(C(=O)N3CCC4(CC3)Oc3ccccc3-c3c4cnn3C)cccc2[nH]1 [Compound 92],5.30 to 5.70
4,COc1ccc(C(=O)N2CCC3(CC2)Oc2ccccc2-c2c3cnn2C)c(O)c1 [Compound 470],5.30 to 5.70
5,COc1cccc(Cl)c1C(=O)N1CCC2(CC1)Oc1ccccc1-c1c2cnn1C [Compound 299],< 5.30
6,Cc1c(C(=O)N2CCC3(CC2)Oc2ccccc2-c2c3cnn2C)cnn1-c1ccc(F)cc1 [Compound 814],< 5.30
7,CN(C)CCOc1ccc(C(=O)N2CCC3(CC2)Oc2cc(F)ccc2-n2cccc23)cc1C(F)(F)F [Compound 411],< 5.30
8,COc1c(C(=O)N2CCC3(CC2)Oc2ccccc2-c2c3cnn2C)ccc(F)c1F [Compound 702],5.30 to 5.70
9,O=C(c1cc2occc2[nH]1)N1CCC2(CC1)Oc1ccccc1-n1c(C(F)(F)F)ccc12 [Compound 214],< 5.30
10,COc1ccc(C(=O)N2CCC3(CC2)Oc2ccccc2-c2c3cnn2C)cc1Cl [Compound 227],5.30 to 5.70
11,Cc1cc(C(=O)N2CCC3(CC2)Oc2ccccc2-n2c(C#N)ccc23)ccc1OCC(=O)O [Compound 462],5.30 to 5.70
12,Cn1ncc2c1-c1ccccc1OC21CCN(C(=O)c2ccc(=O)n(C)c2)CC1 [Compound 87],< 5.30
13,Cc1cc(C(=O)N2CCC3(CC2)Oc2ccccc2-c2ncn(C)c23)ccc1OC(C)C [Compound 525],≥ 5.70
14,COc1cc(C(=O)N2CCC3(CC2)Oc2ccccc2-n2cccc23)ccc1OCCC(C)C [Compound 602],≥ 5.70
15,O=C(c1cccnc1N1CCCC1)N1CCC2(CC1)Oc1ccccc1-n1c(C(F)(F)F)ccc12 [Compound 535],≥ 5.70
16,O=C(c1ccc2[nH]ncc2c1)N1CCC2(CC1)Oc1ccccc1-n1c(C(F)(F)F)ccc12 [Compound 556],5.30 to 5.70
17,COc1cc(C(=O)N2CCC3(CC2)Oc2ccccc2-c2c3cnn2C)ccc1S(=O)(=O)C(C)(C)C [Compound 557],≥ 5.70
18,Cc1cc(C(=O)N2CCC3(CC2)Oc2cc(F)ccc2-n2cccc23)ccc1C#N [Compound 215],≥ 5.70
19,CC(C)S(=O)(=O)c1ccc(C(=O)N2CCC3(CC2)Oc2ccccc2-n2c(F)ccc23)cc1 [Compound 508],≥ 5.70
20,COc1cccc(F)c1C(=O)N1CCC2(CC1)Oc1cc(Cl)ccc1-n1cccc12 [Compound 739],≥ 5.70
21,O=C(c1ccc(S(=O)(=O)CC2CCC2)cn1)N1CCC2(CC1)Oc1ccccc1-n1c(C(F)(F)F)ccc12 [Compound 873],≥ 5.70
22,COC[C@@H](C)Oc1ccc(C(=O)N2CCC3(CC2)Oc2ccccc2-n2cccc23)cc1OC [Compound 449],≥ 5.70
23,COC(=O)C(C)(C)c1ccc(C(=O)N2CCC3(CC2)Oc2cc(Cl)ccc2-n2cccc23)cc1OC [Compound 723],≥ 5.70
24,Cc1ccc(C(=O)N2CCC3(CC2)Oc2ccccc2-n2c(C(F)(F)F)ccc23)nc1 [Compound 566],< 5.30
25,COc1cc(C(=O)N2CCC3(CC2)Oc2cc(Cl)ccc2-n2cccc23)ccc1C(C)(C)O [Compound 216],≥ 5.70
26,CC(C)(CO)c1ccc(C(=O)N2CCC3(CC2)Oc2cc(Cl)ccc2-n2cccc23)cc1 [Compound 106],≥ 5.70
27,Cc1cc(C(=O)N2CCC3(CC2)Oc2ccccc2-n2c(C#N)ccc23)ccc1[C@](C)(O)CO [Compound 54],≥ 5.70

# Further lines, results first:
row,pIC50,SMILES
1,≥ 5.70,CCn1ncc2c1-c1ccccc1OC21CCN(C(=O)c2ccccc2OC(F)F)CC1 [Compound 167]
2,≥ 5.70,COc1cc(C(=O)N2CCC3(CC2)Oc2cc(Cl)ccc2-n2cccc23)ccc1C(C)(C)C [Compound 529]
3,≥ 5.70,COc1ccc(-n2ncc(C(=O)N3CCC4(CC3)Oc3ccccc3-c3c4cnn3C)c2C)cc1 [Compound 601]
4,≥ 5.70,COc1ccc(OC)c(C(=O)N2CCC3(CC2)Oc2cc(Cl)ccc2-n2cccc23)c1 [Compound 189]
5,≥ 5.70,C[C@@](O)(CO)c1ccc(C(=O)N2CCC3(CC2)Oc2ccccc2-n2c(C(F)(F)F)ccc23)cc1 [Compound 640]
6,≥ 5.70,CC[C@H](C)Oc1ccc(C(=O)N2CCC3(CC2)Oc2ccccc2-n2cccc23)cc1C#N [Compound 744]
7,≥ 5.70,Cn1ncc2c1-c1cc(F)ccc1OC21CCN(C(=O)c2ccccc2OC(F)(F)F)CC1 [Compound 382]
8,≥ 5.70,Cn1ncc2c1-c1ccccc1OC21CCN(C(=O)c2ccnc(N3CCCCC3)c2)CC1 [Compound 155]
9,≥ 5.70,COC(=O)c1c(OC)cccc1C(=O)N1CCC2(CC1)Oc1ccccc1-n1c(C#N)ccc12 [Compound 101]
10,≥ 5.70,CC(C)(C)c1ccc(C(=O)N2CCC3(CC2)Oc2cc(F)ccc2-n2cccc23)cc1C#N [Compound 536]
11,≥ 5.70,CCCOc1ccc(C(=O)N2CCC3(CC2)Oc2ccccc2-c2c3cnn2C)cc1C [Compound 709]
12,≥ 5.70,Cc1[nH]c2c(C(=O)N3CCC4(CC3)Oc3ccccc3-c3c4cnn3C)cccc2c1C [Compound 765]
13,≥ 5.70,COc1ccc(C(=O)N2CCC3(CC2)Oc2cc(Cl)ccc2-n2c(CO)ccc23)cc1C(F)(F)F [Compound 300]
14,≥ 5.70,COc1cc(C(=O)N2CCC3(CC2)Oc2ccccc2-c2c3cnn2C)ccc1OC[C@@H](C)OC [Compound 668]
15,≥ 5.70,COc1c(F)cccc1C(=O)N1CCC2(CC1)Oc1cc(Cl)ccc1-c1c2cnn1C [Compound 328]
16,≥ 5.70,COc1cc(C(=O)N2CCC3(CC2)Oc2ccccc2-n2cccc23)ccc1OCCCO [Compound 466]
17,≥ 5.70,COc1cc(C(=O)N2CCC3(CC2)Oc2cc(Cl)ccc2-n2cccc23)ccc1OC[C@H](O)CO [Compound 90]
18,≥ 5.70,COc1cc(C(=O)N2CCC3(CC2)Oc2cc(F)ccc2-n2cccc23)ccc1OC1CCC(O)C1 (stereo not drawn) [Compound 196]
19,≥ 5.70,COc1cc(C(=O)N2CCC3(CC2)Oc2ccccc2-n2cccc23)ccc1OC(C)C [Compound 247]
20,≥ 5.70,COc1cc(C(=O)N2CCC3(CC2)Oc2ccccc2-n2c(C#N)ccc23)ccc1OC(C)(C)C [Compound 686]
21,≥ 5.70,COc1cc(C(=O)N2CCC3(CC2)Oc2ccccc2-n2c(C#N)ccc23)ccc1OCC(C)C [Compound 755]
22,≥ 5.70,CCCOc1ccc(C(=O)N2CCC3(CC2)Oc2ccccc2-n2cccc23)cc1C [Compound 764]
23,≥ 5.70,CC(C)(C)S(=O)(=O)c1ccc(C(=O)N2CCC3(CC2)Oc2ccccc2-n2c3ccc2S(C)(=O)=O)cc1 [Compound 404]
24,≥ 5.70,CC(C)Oc1ccc(C(=O)N2CCC3(CC2)Oc2ccccc2-c2nn(C)cc23)cn1 [Compound 830]
25,≥ 5.70,CC(C)(C)NS(=O)(=O)c1ccc(C(=O)N2CCC3(CC2)Oc2ccccc2-n2c(C#N)ccc23)cc1 [Compound 844]
26,≥ 5.70,CCc1ccc(C(=O)N2CCC3(CC2)Oc2ccccc2-n2ccc(C)c23)cc1OC [Compound 314]
27,≥ 5.70,CC(C)Oc1ccc(C(=O)N2CCC3(CC2)Oc2ccccc2-c2c3cnn2C)c2ncccc12 [Compound 183]
28,≥ 5.70,CC(C)n1ncc2c1-c1ccccc1OC21CCN(C(=O)c2ccc(S(=O)(=O)C(C)C)cc2)CC1 [Compound 594]
29,≥ 5.70,COc1ccccc1C(=O)N1CCC2(CC1)Oc1ccc(F)cc1-c1c2cnn1C [Compound 383]
30,≥ 5.70,COc1cc(C(=O)N2CCC3(CC2)Oc2ccccc2-c2c3cnn2CC(F)(F)F)ccc1OCCC(C)C [Compound 785]
